Measured values reported in patent US20030191088A1, “Novel therapeutic agents interfering in neutrophil migration” (priority 1998, published 2003).

Assays:
[1] = system: neutrophil L-selectin; details: cited from earlier work
[2] = system: neutrophils; details: cited from earlier work
[3] = system: neutrophil migration (chemotaxis) towards IL-8; details: in vitro, GXM added directly to the leukocytes; cited from earlier work
[4] = system: pneumococcal meningitis; assay: pneumococcal meningitis model in rabbits, intravenous GXM; format: in vivo
[5] = system: healthy rabbits; assay: Animal toxicity of intravenous GXM in healthy rabbits; format: in vivo; details: intravenous administration, doses ranging from 0.5 to 50 mg
Excerpt: In experiments, it was investigated whether GXM is toxic in healthy animals.

[6] = molecular target: CD18 (β subunit of LFA-1) (Homo sapiens, UniProt P05107); details: cited from earlier work
[7] = purified form; cited from earlier work
[8] = pneumococcal meningitis rabbit model, i.v. administration
[9] = rabbits, intravenous administration, in comparison to control rabbits

CD18 (β subunit of LFA-1), sequence (P05107 23-769): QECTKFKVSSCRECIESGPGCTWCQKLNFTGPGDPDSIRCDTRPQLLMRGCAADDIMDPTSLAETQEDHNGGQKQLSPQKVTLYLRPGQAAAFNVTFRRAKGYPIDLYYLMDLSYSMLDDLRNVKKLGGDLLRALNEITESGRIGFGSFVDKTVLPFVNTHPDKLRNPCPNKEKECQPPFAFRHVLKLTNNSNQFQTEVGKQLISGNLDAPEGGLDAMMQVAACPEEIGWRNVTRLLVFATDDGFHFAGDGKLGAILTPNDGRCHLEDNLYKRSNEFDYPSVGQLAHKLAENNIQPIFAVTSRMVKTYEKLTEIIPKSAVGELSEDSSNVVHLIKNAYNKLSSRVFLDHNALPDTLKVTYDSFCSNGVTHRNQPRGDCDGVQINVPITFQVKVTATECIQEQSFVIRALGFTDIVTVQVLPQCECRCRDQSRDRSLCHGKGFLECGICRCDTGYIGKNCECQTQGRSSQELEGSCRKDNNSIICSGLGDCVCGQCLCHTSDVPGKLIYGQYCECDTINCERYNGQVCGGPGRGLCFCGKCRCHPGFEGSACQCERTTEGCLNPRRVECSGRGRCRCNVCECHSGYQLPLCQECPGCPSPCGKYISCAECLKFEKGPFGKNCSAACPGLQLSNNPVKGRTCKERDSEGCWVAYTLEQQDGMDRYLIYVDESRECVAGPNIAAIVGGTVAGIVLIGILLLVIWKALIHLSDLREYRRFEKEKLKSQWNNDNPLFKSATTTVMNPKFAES

glucuronoxylomannan [GXM]
shedding of neutrophil L-selectin [1]: can induce shedding of neutrophil L-selectin
attraction of neutrophils [2]: attract neutrophils itself
interference with neutrophil migration (chemotaxis) towards IL-8 [3]: interferes with neutrophil migration (chemotaxis) towards IL-8
toxicity and tolerability in the pneumococcal meningitis rabbit model ([4]; i.v. administration): non-toxic and well tolerated
GXM in CSF [4, 8]: detectable
brain toxicity [4, 8]: No demonstrable brain toxicity
TNF-α levels in the CSF [4, 9]: reduces TNF-α levels in the CSF
entry of leukocytes (PMN) into the CSF and brain [4, 9]: delays entry of leukocytes (PMN) into the CSF and brain
protection of the brain against damage [4, 9]: protects the brains of these rabbits against damage
tolerability in healthy rabbits [5]: tolerated
binding to CD18 [6]: can bind to CD18
immunogenicity [7]: poorly immunogenic
